Measured values reported in ChEMBL document CHEMBL5316322, “Discovery and Characterization of the Topical Soft JAK Inhibitor CEE321 for Atopic Dermatitis” (J Med Chem, 2023).
Converted amounts (≈) assume the structure as drawn. The source made the active and inactive calls. The rule behind the calls is not given here.

Legend:
in vitro = conditions: human, liver microsomes
Description: Microsomal stability in human liver microsomes assessed as intrinsic clearance

Homo sapiens [1] = assay: Inhibition of IL4/IL13 stimulated MMP12 gene expression in human fresh skin epidermal explant Franz cell model administered topically to human skin epidermis preincubated with compound overnight followed by IL4/IL13 stimulation and measured after 24 hrs by qRT-PCR analysis; assay type: functional, tissue-based; conditions: Skin of body, route top, time 32.0 hrs
[2] = molecular target: T1, Signal transducer and activator of transcription 6 (Homo sapiens) (UniProt P42226); assay: Inhibition of IL4/IL13 induced STAT6 phosphorylation in topically administered human skin assessed as reduction in phosphorylated STAT6 level preincubated with compound overnight followed by IL4/1L13 stimulation and measured after 3 hrs by Western blot analysis; assay type: tissue-based; conditions: Skin of body, route top, time 11.0 hrs
T1 sequence (whole entry): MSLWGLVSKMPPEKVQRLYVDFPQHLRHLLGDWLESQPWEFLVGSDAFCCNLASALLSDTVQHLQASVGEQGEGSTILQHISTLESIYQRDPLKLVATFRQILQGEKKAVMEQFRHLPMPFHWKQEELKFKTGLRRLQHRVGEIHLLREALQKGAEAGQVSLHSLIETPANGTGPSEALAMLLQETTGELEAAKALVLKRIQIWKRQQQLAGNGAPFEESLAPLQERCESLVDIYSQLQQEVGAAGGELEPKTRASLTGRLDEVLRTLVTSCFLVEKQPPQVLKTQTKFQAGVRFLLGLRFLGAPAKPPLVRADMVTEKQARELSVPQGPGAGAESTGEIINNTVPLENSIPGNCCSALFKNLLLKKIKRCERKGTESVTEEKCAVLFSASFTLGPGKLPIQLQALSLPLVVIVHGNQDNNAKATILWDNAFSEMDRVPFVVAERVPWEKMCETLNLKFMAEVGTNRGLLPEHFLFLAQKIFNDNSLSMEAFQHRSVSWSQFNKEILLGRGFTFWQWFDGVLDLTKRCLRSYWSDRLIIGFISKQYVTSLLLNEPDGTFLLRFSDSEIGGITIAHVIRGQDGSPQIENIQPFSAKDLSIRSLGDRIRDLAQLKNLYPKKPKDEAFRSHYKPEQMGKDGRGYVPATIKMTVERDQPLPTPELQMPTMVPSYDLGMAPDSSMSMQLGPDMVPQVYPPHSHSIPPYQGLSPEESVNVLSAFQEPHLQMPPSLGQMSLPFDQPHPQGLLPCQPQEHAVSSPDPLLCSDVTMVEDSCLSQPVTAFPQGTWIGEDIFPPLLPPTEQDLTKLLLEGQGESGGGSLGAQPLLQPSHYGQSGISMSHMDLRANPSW

Homo sapiens [3] = assay: Inhibition of IL4/IL13 stimulated TARC gene expression in human fresh skin epidermal explant Franz cell model administered topically to human skin epidermis preincubated with compound overnight followed by IL4/IL13 stimulation and measured after 24 hrs by qRT-PCR analysis; assay type: functional, tissue-based; conditions: Skin of body, route top, time 32.0 hrs
[4] = molecular target: Mitogen-activated protein kinase kinase kinase kinase 4 (Homo sapiens, UniProt O95819); assay: Inhibition of MAP4K4 (unknown origin) by caliper microfluidic mobility shift technology
[5] = Drug excretion in iv dosed bile duct cannulated rat bile assessed as unchanged drug; assay type: ADME, organism-based; conditions: read-out: Drug excretion
[6] = Microsomal stability in minipig liver microsomes assessed as intrinsic clearance; assay type: ADME, Sus scrofa domesticus, Microsome; conditions: pig
[7] = Microsomal stability in rat liver microsomes assessed as intrinsic clearance; assay type: ADME, Microsome
[8] = Metabolic stability in human hepatocytes assessed as intrinsic clearance; assay type: ADME, cell-based, Hepatocyte
[9] = Drug concentration in topically administered human skin epidermis by MALDI-IMS analysis; assay type: ADME, tissue-based; conditions: topical_or_ocular, route top, read-out: Drug uptake
[10] = molecular target: Non-receptor tyrosine-protein kinase TYK2 (Homo sapiens, UniProt P29597)
Description: Inhibition of TYK2 (unknown origin) by caliper technology

[11] = Drug uptake in topically administered human skin at 0.5 mm of depth by MALDI-IMS analysis; assay type: ADME, tissue-based, Skin of body; conditions: topical or ocular, route top, read-out: Drug uptake
JAK1/TYK2 = JAK1/TYK2 (Homo sapiens, UniProt P23458+P29597); assay type: cell-based, M07E
Description: Inhibition of JAK1/TYK2 in human M07E cells assessed as reduction of IFN alpha stimulated STAT phosphorylation preincubated for 30 mins followed by IFN alpha stimulation and measured after 15 mins by flow cytometry method

[12] = Lipophilicity, log D of the compound; assay type: physicochemical; conditions: octanol/water
[13] = Half life in minipig; assay type: ADME, Sus scrofa domesticus; conditions: pig, in vivo
[14] = […] in mouse 3T3 cells by neutral red uptake assay; assay type: toxicity, cell-based; conditions: nih3t3
Homo sapiens [15] = assay: Inhibition of IL4/IL13 stimulated Eotaxin 3 gene expression in human fresh skin epidermal explant Franz cell model administered topically to human skin epidermis preincubated with compound overnight followed by IL4/IL13 stimulation and measured after 24 hrs by qRT-PCR analysis; assay type: functional, tissue-based; conditions: Skin of body, route top, time 32.0 hrs
[16] = Aqueous solubility of the compound at pH 6.8; assay type: physicochemical
[17] = Plasma protein binding in human; assay type: ADME, cell-free; conditions: read-out: PPB
[18] = molecular target: Glycogen synthase kinase-3 beta (Homo sapiens, UniProt P49841); assay: Inhibition of GSK3B (unknown origin) by caliper microfluidic mobility shift technology
[19] = Drug excretion in iv dosed bile duct cannulated rat urine assessed as unchanged drug; assay type: ADME, organism-based; conditions: read-out: Drug excretion
[20] = molecular target: Tyrosine-protein kinase JAK2 (Homo sapiens, UniProt O60674)
Homo sapiens [21] = assay: Inhibition of IL4/IL13 induced MMP12 gene expression in topically administered human skin preincubated with compound overnight followed by IL4/IL13 stimulation and measured after 3 hrs by qRT-PCR analysis; assay type: functional, tissue-based; conditions: Skin of body, route top, time 11.0 hrs
[22] = Half life in rat; assay type: ADME; conditions: in vivo
[23] = Metabolic stability in minipig hepatocytes assessed as intrinsic clearance; assay type: ADME, cell-based, Sus scrofa domesticus, Hepatocyte; conditions: pig
[24] = molecular target: T2, Janus Kinase (JAK) (Homo sapiens) (UniProt P52333+P23458+O60674+P29597); assay: Inhibition of JAK in human skin assessed as reduction in TARC release at 10 uM incubated for 24 hrs in the presence of IL4/IL13 by MSD analysis relative to control; assay type: tissue-based; conditions: Skin of body
[25] = Drug exposure in topically dosed minipig and measured for 14 days; assay type: ADME, organism-based, Sus scrofa domesticus; conditions: pig, in vivo, topical_or_ocular, 336 h; route top, time 14 day
[26] = molecular target: T2, Janus Kinase (JAK) (Homo sapiens); assay: Inhibition of JAK in human skin assessed as reduction in TARC release at 1 uM incubated for 24 hrs in the presence of IL4/IL13 by MSD analysis relative to control; assay type: tissue-based; conditions: Skin of body
[27] = Clearance in rat; assay type: ADME; conditions: in vivo
JAK3/JAK1 [28] = molecular target: T3, JAK3/JAK1 (Homo sapiens, UniProt P23458+P52333); assay type: tissue-based, Blood
Description: Inhibition of JAK1/JAK3 in human blood assessed as reduction of IL-2 stimulated STAT phosphorylation preincubated for 30 mins followed by IL-2 stimulation and measured after 15 mins by flow cytometry method

[29] = Clearance in minipig; assay type: ADME, Sus scrofa domesticus; conditions: pig, in vivo
[30] = Drug uptake in topically administered human skin at 1 mm of depth by MALDI-IMS analysis; assay type: ADME, tissue-based, Skin of body; conditions: topical or ocular, route top, read-out: Drug uptake
[31] = Metabolic stability in rat hepatocytes assessed as intrinsic clearance; assay type: ADME, cell-based, Hepatocyte
[32] = molecular target: Tyrosine-protein kinase JAK1 (Homo sapiens, UniProt P23458)
[33] = molecular target: T4, Tyrosine-protein kinase JAK3 (Homo sapiens, UniProt P52333)
T4 sequence (P52333 whole entry): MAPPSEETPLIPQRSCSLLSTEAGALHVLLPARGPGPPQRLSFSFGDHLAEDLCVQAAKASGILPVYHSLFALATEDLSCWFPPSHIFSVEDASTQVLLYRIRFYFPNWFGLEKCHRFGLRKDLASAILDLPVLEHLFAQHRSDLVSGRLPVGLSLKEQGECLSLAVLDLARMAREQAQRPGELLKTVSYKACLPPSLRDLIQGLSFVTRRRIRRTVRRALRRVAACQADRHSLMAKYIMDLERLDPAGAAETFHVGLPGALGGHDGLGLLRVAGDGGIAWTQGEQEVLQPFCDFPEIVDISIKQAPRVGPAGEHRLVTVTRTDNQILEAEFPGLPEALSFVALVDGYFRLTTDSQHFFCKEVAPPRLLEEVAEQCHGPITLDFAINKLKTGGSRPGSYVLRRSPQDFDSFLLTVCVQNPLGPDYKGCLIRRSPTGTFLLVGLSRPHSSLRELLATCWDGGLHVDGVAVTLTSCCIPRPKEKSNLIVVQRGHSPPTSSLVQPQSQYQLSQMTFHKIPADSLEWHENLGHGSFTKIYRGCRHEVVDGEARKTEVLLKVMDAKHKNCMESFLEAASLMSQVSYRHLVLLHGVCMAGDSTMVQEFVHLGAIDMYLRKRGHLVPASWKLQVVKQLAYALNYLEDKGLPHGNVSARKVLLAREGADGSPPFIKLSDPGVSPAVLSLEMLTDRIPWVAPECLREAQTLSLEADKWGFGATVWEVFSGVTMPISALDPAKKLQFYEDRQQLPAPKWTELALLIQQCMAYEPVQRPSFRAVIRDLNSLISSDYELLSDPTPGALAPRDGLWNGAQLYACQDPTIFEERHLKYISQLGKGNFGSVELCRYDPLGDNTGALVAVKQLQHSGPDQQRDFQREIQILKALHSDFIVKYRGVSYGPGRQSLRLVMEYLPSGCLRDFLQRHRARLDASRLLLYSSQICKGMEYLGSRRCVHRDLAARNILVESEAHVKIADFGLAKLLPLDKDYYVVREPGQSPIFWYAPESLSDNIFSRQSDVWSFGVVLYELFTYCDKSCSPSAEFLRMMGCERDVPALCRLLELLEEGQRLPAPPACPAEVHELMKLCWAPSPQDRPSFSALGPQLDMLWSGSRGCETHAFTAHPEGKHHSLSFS

JAK3/JAK1 [34] = molecular target: T3, JAK3/JAK1; assay type: cell-based, M07E
Description: Inhibition of JAK1/JAK3 in human M07E cells assessed as reduction of IL-15 stimulated STAT phosphorylation preincubated for 30 mins followed by IL-15 stimulation and measured after 15 mins by flow cytometry analysis

Chain of Non-receptor tyrosine-protein kinase TYK2 (P29597 whole entry): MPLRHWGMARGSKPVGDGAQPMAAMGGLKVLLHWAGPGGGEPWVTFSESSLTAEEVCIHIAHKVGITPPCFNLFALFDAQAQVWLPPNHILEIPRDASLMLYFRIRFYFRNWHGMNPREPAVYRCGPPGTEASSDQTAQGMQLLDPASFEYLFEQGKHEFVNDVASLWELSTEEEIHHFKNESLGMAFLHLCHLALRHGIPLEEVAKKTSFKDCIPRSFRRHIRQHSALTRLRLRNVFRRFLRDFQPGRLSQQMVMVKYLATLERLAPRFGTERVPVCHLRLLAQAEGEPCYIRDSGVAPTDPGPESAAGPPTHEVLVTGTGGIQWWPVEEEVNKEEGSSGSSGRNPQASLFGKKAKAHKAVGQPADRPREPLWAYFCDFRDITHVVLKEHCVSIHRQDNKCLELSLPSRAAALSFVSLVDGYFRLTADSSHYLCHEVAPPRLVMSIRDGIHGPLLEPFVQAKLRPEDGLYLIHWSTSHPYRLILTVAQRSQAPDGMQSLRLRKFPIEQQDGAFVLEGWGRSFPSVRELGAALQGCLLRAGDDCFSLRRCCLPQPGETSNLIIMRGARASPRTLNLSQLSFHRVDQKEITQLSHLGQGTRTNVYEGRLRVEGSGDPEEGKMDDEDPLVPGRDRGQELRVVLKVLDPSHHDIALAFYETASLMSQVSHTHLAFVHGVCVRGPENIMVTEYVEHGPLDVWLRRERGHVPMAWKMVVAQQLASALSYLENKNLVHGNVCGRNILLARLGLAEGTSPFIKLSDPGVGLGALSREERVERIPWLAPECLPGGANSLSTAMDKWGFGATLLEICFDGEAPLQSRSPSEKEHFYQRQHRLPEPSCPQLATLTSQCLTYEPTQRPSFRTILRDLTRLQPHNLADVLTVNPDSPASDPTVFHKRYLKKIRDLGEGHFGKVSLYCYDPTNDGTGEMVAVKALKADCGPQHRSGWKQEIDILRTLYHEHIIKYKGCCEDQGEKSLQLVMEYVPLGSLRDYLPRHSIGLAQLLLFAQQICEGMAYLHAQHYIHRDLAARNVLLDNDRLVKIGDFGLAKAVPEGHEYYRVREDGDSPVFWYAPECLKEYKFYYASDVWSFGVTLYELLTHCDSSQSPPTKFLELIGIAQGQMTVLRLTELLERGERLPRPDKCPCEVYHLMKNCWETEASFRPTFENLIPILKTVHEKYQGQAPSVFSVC
Chain of Tyrosine-protein kinase JAK2 (O60674 whole entry): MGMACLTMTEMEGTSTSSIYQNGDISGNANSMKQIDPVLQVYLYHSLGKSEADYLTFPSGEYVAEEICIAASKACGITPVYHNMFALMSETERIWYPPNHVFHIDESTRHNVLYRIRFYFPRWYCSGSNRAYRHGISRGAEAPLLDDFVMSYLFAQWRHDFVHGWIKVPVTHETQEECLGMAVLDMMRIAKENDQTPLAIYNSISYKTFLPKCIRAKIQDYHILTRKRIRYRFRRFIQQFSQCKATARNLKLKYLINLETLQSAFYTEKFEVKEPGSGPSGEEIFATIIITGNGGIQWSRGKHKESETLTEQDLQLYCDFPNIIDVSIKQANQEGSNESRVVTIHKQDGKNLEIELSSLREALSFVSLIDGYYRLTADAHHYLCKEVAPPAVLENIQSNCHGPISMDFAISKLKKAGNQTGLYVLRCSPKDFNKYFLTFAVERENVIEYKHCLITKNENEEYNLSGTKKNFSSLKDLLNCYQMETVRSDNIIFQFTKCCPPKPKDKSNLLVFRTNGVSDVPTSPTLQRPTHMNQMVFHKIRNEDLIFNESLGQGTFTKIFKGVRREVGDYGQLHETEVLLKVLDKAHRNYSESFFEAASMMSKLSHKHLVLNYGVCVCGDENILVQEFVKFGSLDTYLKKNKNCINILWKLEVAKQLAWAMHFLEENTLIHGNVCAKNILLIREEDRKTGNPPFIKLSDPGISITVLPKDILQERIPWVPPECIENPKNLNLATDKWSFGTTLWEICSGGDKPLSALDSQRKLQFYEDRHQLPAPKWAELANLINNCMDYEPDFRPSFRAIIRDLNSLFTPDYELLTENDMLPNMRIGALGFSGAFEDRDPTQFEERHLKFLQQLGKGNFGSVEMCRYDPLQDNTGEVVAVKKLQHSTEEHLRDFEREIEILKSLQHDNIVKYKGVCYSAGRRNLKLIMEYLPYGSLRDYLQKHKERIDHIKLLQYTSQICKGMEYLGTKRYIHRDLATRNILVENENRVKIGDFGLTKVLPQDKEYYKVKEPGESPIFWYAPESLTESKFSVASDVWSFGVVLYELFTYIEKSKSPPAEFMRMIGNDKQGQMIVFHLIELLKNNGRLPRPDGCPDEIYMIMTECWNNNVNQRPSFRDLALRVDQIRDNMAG
Chain of Tyrosine-protein kinase JAK1 (P23458 whole entry): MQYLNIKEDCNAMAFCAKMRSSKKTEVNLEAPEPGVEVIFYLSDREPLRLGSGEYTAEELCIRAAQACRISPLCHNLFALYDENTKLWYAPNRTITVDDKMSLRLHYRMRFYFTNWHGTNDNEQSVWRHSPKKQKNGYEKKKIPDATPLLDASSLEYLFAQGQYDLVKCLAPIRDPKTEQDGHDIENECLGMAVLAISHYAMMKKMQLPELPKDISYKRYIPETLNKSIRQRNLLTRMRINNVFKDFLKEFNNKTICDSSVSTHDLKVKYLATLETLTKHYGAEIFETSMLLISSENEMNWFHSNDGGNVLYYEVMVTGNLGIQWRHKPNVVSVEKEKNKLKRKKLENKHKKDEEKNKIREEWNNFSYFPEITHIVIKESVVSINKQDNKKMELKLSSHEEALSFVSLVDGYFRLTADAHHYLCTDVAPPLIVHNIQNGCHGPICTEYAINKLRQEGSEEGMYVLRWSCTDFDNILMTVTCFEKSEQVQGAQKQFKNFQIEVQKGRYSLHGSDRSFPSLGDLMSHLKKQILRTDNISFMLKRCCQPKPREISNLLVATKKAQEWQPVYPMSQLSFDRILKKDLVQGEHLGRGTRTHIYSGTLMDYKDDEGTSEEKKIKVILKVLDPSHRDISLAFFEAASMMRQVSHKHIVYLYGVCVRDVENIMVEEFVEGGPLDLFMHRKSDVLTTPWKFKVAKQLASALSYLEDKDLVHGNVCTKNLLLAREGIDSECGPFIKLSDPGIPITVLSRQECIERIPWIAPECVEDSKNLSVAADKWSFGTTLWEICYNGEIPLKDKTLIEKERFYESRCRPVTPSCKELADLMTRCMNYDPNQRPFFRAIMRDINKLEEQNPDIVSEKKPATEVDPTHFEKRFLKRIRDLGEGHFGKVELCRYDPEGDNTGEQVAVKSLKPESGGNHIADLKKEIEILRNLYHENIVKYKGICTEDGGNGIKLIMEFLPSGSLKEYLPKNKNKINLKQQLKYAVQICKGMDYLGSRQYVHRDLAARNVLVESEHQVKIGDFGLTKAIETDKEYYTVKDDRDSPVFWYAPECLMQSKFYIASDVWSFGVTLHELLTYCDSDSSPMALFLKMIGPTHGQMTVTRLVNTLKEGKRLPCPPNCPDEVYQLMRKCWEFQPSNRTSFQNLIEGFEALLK
Chain of JAK1/TYK2 (P23458 whole entry): as above
Chain of JAK1/TYK2 (P29597 whole entry): as the sequence (P29597 whole entry) above
T3 sequence (P23458 whole entry, one chain of several): as the sequence (P23458 whole entry) above
T2 sequence (O60674 whole entry, looked up, one chain of several): as the sequence (O60674 whole entry) above
T2 sequence (P23458 whole entry, looked up, one chain of several): as the sequence (P23458 whole entry) above
T2 sequence (P29597 whole entry, looked up, one chain of several): as the sequence (P29597 whole entry) above
Chain of Mitogen-activated protein kinase kinase kinase kinase 4 (O95819 whole entry): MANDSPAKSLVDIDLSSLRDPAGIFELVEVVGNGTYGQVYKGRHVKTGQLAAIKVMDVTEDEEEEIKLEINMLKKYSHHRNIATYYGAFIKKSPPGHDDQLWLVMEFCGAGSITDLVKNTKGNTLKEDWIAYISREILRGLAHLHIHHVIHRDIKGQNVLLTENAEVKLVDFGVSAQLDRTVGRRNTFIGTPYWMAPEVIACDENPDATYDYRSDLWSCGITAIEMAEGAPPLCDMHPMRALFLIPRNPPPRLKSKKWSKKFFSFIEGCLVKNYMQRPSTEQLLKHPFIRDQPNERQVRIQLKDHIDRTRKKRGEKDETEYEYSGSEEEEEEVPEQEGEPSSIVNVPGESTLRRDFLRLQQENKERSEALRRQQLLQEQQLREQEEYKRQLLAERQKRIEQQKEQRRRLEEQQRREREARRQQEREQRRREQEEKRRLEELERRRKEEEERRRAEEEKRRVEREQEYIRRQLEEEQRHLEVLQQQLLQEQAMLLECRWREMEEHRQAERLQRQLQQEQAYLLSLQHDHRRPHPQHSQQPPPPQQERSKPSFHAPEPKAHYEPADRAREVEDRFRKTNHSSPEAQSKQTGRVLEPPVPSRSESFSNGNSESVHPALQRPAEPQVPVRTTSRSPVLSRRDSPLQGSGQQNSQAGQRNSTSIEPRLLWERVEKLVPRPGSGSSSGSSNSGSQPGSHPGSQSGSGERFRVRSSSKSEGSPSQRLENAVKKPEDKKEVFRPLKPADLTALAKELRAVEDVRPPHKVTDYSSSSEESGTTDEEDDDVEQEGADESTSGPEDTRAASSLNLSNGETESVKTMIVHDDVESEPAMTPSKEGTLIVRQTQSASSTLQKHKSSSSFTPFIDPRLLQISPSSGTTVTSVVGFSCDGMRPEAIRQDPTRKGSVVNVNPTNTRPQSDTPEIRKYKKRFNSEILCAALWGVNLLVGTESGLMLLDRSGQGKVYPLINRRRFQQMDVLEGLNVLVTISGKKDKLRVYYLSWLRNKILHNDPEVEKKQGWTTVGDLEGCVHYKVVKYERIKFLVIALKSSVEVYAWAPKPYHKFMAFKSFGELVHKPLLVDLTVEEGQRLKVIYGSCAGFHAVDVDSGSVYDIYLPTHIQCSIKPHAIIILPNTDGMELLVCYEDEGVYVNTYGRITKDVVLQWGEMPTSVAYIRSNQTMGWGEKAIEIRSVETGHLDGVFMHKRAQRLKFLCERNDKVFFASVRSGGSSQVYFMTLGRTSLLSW

N#CC[C@H](C1CCCC1)n1cc(-c2ncnc3[nH]ccc23)cn1 [RUXOLITINIB]
microsomal CLint (in vitro): 40 µL/min/mg

Cc1cccc(Nc2cc(Nc3ccccc3Cl)c(C(N)=O)cn2)n1
inhibition (Homo sapiens [1]): Active
inhibition [2]: Active
inhibition (Homo sapiens [3]): Active
IC50 [4]: 110 nM
dose excreted [5]: < 1%
CLH [6]: 67 mL·min/g
CLH [7]: 204 mL·min/g
CLH [8]: 47 mL·min/g
concentration [9]: 13 µM
IC50 [10]: 50 nM
concentration at 500 µM [11]: 3.51 µM
IC50 (JAK1/TYK2): 85 nM
logD [12]: 4.3
half-life [13]: 60 min
Activity [14]: Non-Toxic
inhibition (Homo sapiens [15]): Active
microsomal CLint (in vitro): 166 µL/min/mg
solubility [16]: 0.2 µM (≈ 0.0708 µg/mL)
fraction unbound [17]: < 0.01
IC50 [18]: 380 nM
dose excreted [19]: 1.3%
IC50 [20]: 48 nM
inhibition (Homo sapiens [21]): Active
half-life [22]: 30 min
CLH [23]: 38 mL·min/g
inhibition [24]: 100%
Drug uptake [25]: < 1 nM
inhibition [26]: 74%
clearance [27]: 82 mL/min/kg
IC50 (JAK3/JAK1 [28]): 2350 nM
CL [29]: 52 mL/min/g
concentration at 1000 µM [30]: 1680 nM
CLH [31]: 94 mL·min/g
IC50 [32]: 50 nM
IC50 [33]: 59 nM
IC50 (JAK3/JAK1 [34]): 54 nM

COc1ccccc1Nc1cc(Nc2cccnn2)ncc1C(N)=O
IC50 [10]: 19 nM
IC50 (JAK1/TYK2): 51 nM
logD [12]: 2.4
microsomal CLint (in vitro): 127 µL/min/mg
IC50 [20]: 29 nM
IC50 (JAK3/JAK1 [28]): 486 nM
IC50 [32]: 29 nM
IC50 [33]: 39 nM
IC50 (JAK3/JAK1 [34]): 66 nM

CCS(=O)(=O)N1CC(CC#N)(n2cc(-c3ncnc4[nH]ccc34)cn2)C1 [BARICITINIB]
microsomal CLint (in vitro): < 25 µL/min/mg

COc1ccccc1Nc1cc(Nc2cccc(C)n2)ncc1C(N)=O
IC50 [10]: 15 nM
IC50 (JAK1/TYK2): 33 nM
logD [12]: 3.7
microsomal CLint (in vitro): 179 µL/min/mg
IC50 [20]: 14 nM
IC50 (JAK3/JAK1 [28]): 994 nM
IC50 [32]: 14 nM
IC50 [33]: 18 nM
IC50 (JAK3/JAK1 [34]): 85 nM

C[C@H]1CN(C(=O)CC#N)[C@]12CCN(c1ncnc3[nH]ccc13)C2 [DELGOCITINIB]
microsomal CLint (in vitro): < 25 µL/min/mg

CC[C@@H]1CN(C(=O)NCC(F)(F)F)C[C@@H]1c1cnc2cnc3[nH]ccc3n12 [UPADACITINIB]
microsomal CLint (in vitro): < 25 µL/min/mg

Cn1cc(Nc2nccc(N3CC4CCC(C3)N4C(=O)[C@@H]3CC3(F)F)n2)cn1
microsomal CLint (in vitro): < 25 µL/min/mg

COc1ccccc1Nc1cc(Nc2ccccn2)ncc1C(N)=O
IC50 [10]: 6 nM
IC50 (JAK1/TYK2): 31 nM
logD [12]: 3.4
microsomal CLint (in vitro): 210 µL/min/mg
IC50 [20]: 8 nM
IC50 (JAK3/JAK1 [28]): 340 nM
IC50 [32]: 9 nM
IC50 [33]: 11 nM
IC50 (JAK3/JAK1 [34]): 45 nM

NC(=O)c1cnc(Nc2ccccn2)cc1Nc1ccccc1Cl
IC50 [10]: 11 nM
IC50 (JAK1/TYK2): 84 nM
logD [12]: 3.7
microsomal CLint (in vitro): 227 µL/min/mg
fraction unbound [17]: < 0.01
IC50 [20]: 27 nM
IC50 (JAK3/JAK1 [28]): 564 nM
IC50 [32]: 22 nM
IC50 [33]: 10 nM
IC50 (JAK3/JAK1 [34]): 41 nM
